Measured values: patent publication EP2150620B1, “Method for preparing C-6 phosphorylated D-aldohexoses and C-6 phosphorylated D-aldohexose derivatives, and new C-6 phosphorylated D-aldohexose derivatives” (Libragen, priority 2007, dated 2008)
Like-named read-outs stand apart in the source and are kept apart here.

What was measured:
[1] = target: polyphosphate-glucose phosphotransferase (Mycobacterium tuberculosis, UniProt P9WIN1); conditions: cited from earlier work; for Ki: read-out: Ki (ATP inhibits at high concentration)
Chain of polyphosphate-glucose phosphotransferase (Mycobacterium tuberculosis, UniProt P9WIN1) (P9WIN1 whole entry): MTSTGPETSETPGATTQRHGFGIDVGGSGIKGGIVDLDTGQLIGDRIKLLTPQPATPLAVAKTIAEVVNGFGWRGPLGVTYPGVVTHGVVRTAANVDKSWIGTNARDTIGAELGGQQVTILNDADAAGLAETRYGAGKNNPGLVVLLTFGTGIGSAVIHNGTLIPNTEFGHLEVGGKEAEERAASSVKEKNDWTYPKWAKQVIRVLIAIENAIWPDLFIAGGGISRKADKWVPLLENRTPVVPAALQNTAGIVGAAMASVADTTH

[2] = tested on: polyphosphate-glucose phosphotransferase; conditions: cited from earlier work; for inhibition of the enzyme: donor ATP; for Km: pH 7.5, 30°C
[3] = tested on: polyphosphate-glucose phosphotransferase activity; assay: C-6 phosphorylation with enzymatic extracts of other Mycobacterium strains (Example 3); conditions: all the enzymatic preparations (five strains); acceptor 150 mM; 24 hours at 30°C
Source text: The bacterial strains used are the followings: • Mycobacterium phlei ATCC 11758, • Mycobacterium smegmatis DSMZ 43465 (equivalent to ATCC 607), • Mycobacterium smegmatis ATCC 607 (equivalent to DSMZ 43465) • Mycobacterium smegmatis ATCC 700084 (or mc^2 155) • Mycobacterium sp DSMZ 2966 (equivalent to NRRL B-3683)

[4] = tested on: polyphosphate-glucose phosphotransferase; conditions: cited from earlier work; for activity as phosphoryl acceptor: Arthrobacter sp. strain KM, irrespective of the phosphoryl donor, polyphosphate or ATP
[5] = tested on: polyphosphate-glucose phosphotransferase activity; assay: C-6 phosphorylation of acceptors with polyphosphate by an enzymatic extract, detected by thin layer chromatography (Examples 1 and 2); conditions: Example 2; same synthesis and detection conditions as Example 1
[6] = tested on: polyphosphate-glucose phosphotransferase; conditions: donor ATP, acceptor D-glucose; cited from earlier work
[7] = tested on: polyphosphate-glucose phosphotransferase; conditions: acceptor D-glucose; label is the phosphate donor; Propionibacterium arabinosum enzyme; cited from earlier work
[8] = tested on: polyphosphate-glucose phosphotransferase; conditions: acceptor glucose; cited from earlier work
rat brain hexokinase = target: T1, rat brain hexokinase (Rattus norvegicus, UniProt P05708); conditions: relative to glucose 6-phosphate; cited from earlier work
T1 sequence (P05708 1-918): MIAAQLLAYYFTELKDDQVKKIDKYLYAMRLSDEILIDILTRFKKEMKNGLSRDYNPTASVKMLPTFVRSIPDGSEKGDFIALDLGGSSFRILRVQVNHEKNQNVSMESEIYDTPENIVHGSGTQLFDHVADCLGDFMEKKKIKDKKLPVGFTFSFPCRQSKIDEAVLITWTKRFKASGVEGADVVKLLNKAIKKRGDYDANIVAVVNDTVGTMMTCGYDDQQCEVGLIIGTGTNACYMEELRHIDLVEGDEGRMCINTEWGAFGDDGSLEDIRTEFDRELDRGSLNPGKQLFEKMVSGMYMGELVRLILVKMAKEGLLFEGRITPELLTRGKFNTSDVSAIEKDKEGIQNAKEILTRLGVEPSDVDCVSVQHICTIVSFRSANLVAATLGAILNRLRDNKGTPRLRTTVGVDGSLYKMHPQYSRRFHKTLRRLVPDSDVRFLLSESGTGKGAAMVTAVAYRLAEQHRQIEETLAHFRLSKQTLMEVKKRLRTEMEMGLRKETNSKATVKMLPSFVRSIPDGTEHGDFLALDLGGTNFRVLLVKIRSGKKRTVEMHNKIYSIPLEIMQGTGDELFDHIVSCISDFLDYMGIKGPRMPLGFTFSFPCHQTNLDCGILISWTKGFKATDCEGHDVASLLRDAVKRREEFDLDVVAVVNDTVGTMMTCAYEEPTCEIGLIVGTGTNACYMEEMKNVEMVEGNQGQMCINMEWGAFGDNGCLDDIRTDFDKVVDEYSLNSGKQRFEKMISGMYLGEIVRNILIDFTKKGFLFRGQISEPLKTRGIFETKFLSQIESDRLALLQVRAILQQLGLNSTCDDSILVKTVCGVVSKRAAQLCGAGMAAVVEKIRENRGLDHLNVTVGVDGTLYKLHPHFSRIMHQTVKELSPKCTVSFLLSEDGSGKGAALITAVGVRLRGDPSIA

[9] = donor polyphosphate, acceptor D-glucose

Nc1ncnc2c1ncn2[C@@H]1O[C@H](COP(=O)(O)OP(=O)(O)O)[C@@H](O)[C@H]1O [ADP]
inhibition of the enzyme ([1]; donor ATP, acceptor D-glucose): inhibit | inhibition of the enzyme ([2]; acceptor D-glucose): inhibit

O=C[C@H](O)[C@@H](O)[C@H](O)CO [D-xylose]
inhibition of the enzyme ([1]; donor ATP, acceptor D-glucose): inhibit | inhibition of the enzyme ([2]; acceptor D-glucose): inhibits

O=P(O)(O)OC[C@H]1OC(O)[C@H](O)[C@@H](O)[C@@H]1O (stereo partly drawn) [Glc6P]
inhibition of the enzyme [1, 9]: inhibit | inhibition of the enzyme ([2]; acceptor D-glucose): inhibit

O=C(CO)[C@@H](O)[C@H](O)[C@H](O)COP(=O)(O)O [Fru6P]
inhibition of the enzyme ([1]; donor ATP, acceptor D-glucose): inhibit | inhibition of the enzyme [1, 9]: inhibit

O=CC[C@@H](O)[C@H](O)[C@H](O)COP(=O)(O)O [2-deoxy-D-glucose-6-phosphate]
synthesis of the phosphorylated product by the enzymatic preparations [3]: able to catalyze the synthesis

O=CC[C@@H](O)[C@H](O)[C@H](O)CO [2-deoxy-D-glucose]
activity as phosphoryl acceptor [4]: inert

O=P(O)(O)O[C@H]1O[C@H](CO)[C@@H](O)[C@H](O)[C@H]1O [α-D-glucose-1-phosphate]
phosphorylation of the acceptor (new substance in the 24 hours-incubation medium) [5]: not phosphorylated

[Cl-].[Na+] [NaCl]
inhibits above (concentration) [6]: NaCl above 100 mM inhibits. Mol. weight: 59000

Nc1ccn([C@@H]2O[C@H](COP(=O)(O)OP(=O)(O)OP(=O)(O)O)[C@@H](O)[C@H]2O)c(=O)n1 [CTP]
Km ([2]; label is the phosphate donor): 5900 µM

O=P(O)(O)OP(=O)(O)OP(=O)(O)O [TriPoly(P)]
inhibition of the enzyme ([2]; acceptor D-glucose): inhibits

O=C[C@@H](O)[C@@H](O)[C@H](O)[C@H](O)CO [D-mannose]
activity as % of the activity with glucose ([4]; donor ATP): About 30% of the activity with glucose. | activity as % of the activity with glucose ([4]; donor polyphosphate): ~40% | Km ([4]; pH 7.0, 30°C, donor polyphosphate): 150 µM

O=P(O)(O)OCC1OC(OP(=O)(O)O)C(O)C(O)C1O [D-glucose-1,6-bisphosphate]
synthesis of the phosphorylated product by the enzymatic preparations [3]: could not be synthesized

Nc1ncnc2c1ncn2[C@@H]1O[C@H](COP(=O)(O)OP(=O)(O)OP(=O)(O)O)[C@@H](O)[C@H]1O [ATP, adenosine triphosphate]
Turnover ([1]; acceptor D-glucose, label is the phosphate donor): 116 s⁻¹ | Km ([1]; pH 7.5, donor ATP): 880 µM | Ki ([1]; pH 7.5, donor ATP): 6.6 mM | Km ([1]; pH 8.6, donor ATP): 1400 µM | Ki ([1]; pH 8.6, donor ATP): 7.4 mM | Turnover [7]: Dimer: 2 x 30000 Turnover: 63 s^-1 | Turnover ([2]; acceptor D-glucose, label is the phosphate donor, Propionibacterium shermanii enzyme): 25 s⁻¹ | Km ([2]; label is the phosphate donor): 1500 µM | activity with phosphate donor [8]: No activity with ATP.

O=C[C@H](O)[C@@H](O)[C@H](O)[C@H](S)COP(=O)(O)O [5-thioglucose 6-phosphate]
inhibition constant Ki of rat brain hexokinase, lower than that seen with glucose 6-phosphate (rat brain hexokinase): 10 fold

O=C[C@H](O)[C@@H](O)[C@@H](O)[C@H](O)CO [D-galactose]
activity as phosphoryl acceptor [4]: inert | phosphorylation of the acceptor (new substance in the 24 hours-incubation medium) [5]: not phosphorylated

O=P(O)(O)OC[C@H]1O[C@@H](S)[C@H](O)[C@@H](O)[C@@H]1O [D-glucothiose-6-phosphate]
synthesis of the phosphorylated product by the enzymatic preparations [3]: able to catalyze the synthesis

O=C[C@H](O)[C@H](O)[C@H](O)CO [D-ribose]
phosphorylation of the acceptor (new substance in the 24 hours-incubation medium) [5]: not phosphorylated

O=C[C@@H](O)[C@H](O)[C@H](O)[C@H](O)CO [D-altrose]
phosphorylation of the acceptor (new substance in the 24 hours-incubation medium) [5]: not phosphorylated

Nc1ncnc2c1ncn2[C@@H]1O[C@H](COP(=O)(O)O)[C@@H](O)[C@H]1O [AMP]
inhibition of the enzyme ([1]; donor ATP, acceptor D-glucose): inhibit

O=C(CO)[C@@H](O)[C@H](O)[C@H](O)CO [D-fructose]
activity as phosphoryl acceptor [4]: inert | phosphorylation of the acceptor (new substance in the 24 hours-incubation medium) [5]: not phosphorylated
